Test results from patent US20240057600A1, “METHODS FOR CONTROLLING OR PREVENTING INFESTATION OF PLANTS BY A PHYTOPATHOGENIC MICROORGANISM OF THE GENUS ASPERGILLUS” (priority 2020, published 2024).
In brackets after ≈: the same amount, converted by molar mass. Read-outs that look alike come from different tables or passages of the source.

Experiments:
[1] = tested on: Aspergillus flavus isolates; assay: In vitro mycelial growth inhibition assay on amended agar; assay type: cell-based; settings: 120 h, 5 days incubation, 22 C
Description: (§1) The sensitivity to cyclobutrifluram of 104 isolates of Aspergillus niger and 31 isolates of Aspergillus flavus was determined under in vitro lab conditions using a mycelial growth inhibition assay. Isolates of Aspergillus niger were retrieved from infected seeds or infected plants with clear symptoms of crown rot disease. Isolates of Aspergillus flavus were collected from infected seeds. The sensitivity to azoxystrobin of the isolates was determined under in vitro conditions using a conidial germination inhibition assay. Sensitivity tests were conducted in vitro using agar medium amended with cyclobutrifluram or azoxystrobin at the following concentrations: 0, 0.001, 0.01, 0.1, 1, and 10 mg a.i./L. The plates were incubated at room temperature (22 C). The mycelial growth of the colonies growing on plates amended or not with cyclobutrifluram was determined after 5 days of incubation. The conidial germination on agar plates amended or not with azoxystrobin was determined after 18 hours of incubation. A conidium was rated as germinated, if a normally developing germ tube had at least the length of a conidium. […] Effective dose values (EC50) are expressed in mg of cyclobutrifluram or azoxystrobin active ingredient/L. [table] [table]

[2] = tested on: Aspergillus niger isolates; assay: as above; assay type: cell-based; settings: 120 h, 5 days incubation, 22 C
Description: as §1

[3] = tested on: Aspergillus niger; assay: Peanut field trial, seed treatment, pest incidence 42 days after planting; assay type: in vivo, Aspergillus niger on Arachis hypogaea (peanut)
Description: A peanut field trial was carried out on May 11, 2020 in Malpur, Gujarat, India, to evaluate the efficacy of different compounds against Aspergillus sp. fungi. The disease symptoms started to occur 4 weeks after planting and an assessment on disease incidence (% infected plants) was done 42 days after planting.
Pest Incidence, 42 Days after Planting

[4] = tested on: Aspergillus flavus isolates; assay: In vitro conidial germination inhibition assay on amended agar; assay type: cell-based; settings: 31 A. flavus isolates, 18 hours incubation; for EC50 values, maximum: highest concentration used 10 mg a.i./L
Description: as §1

[5] = tested on: Aspergillus niger isolates; assay: as above; assay type: cell-based; settings: 104 A. niger isolates, 18 hours incubation; for EC50 values, minimum: 22 C; for EC50 values, maximum: highest concentration used 10 mg a.i./L
Description: as §1

| SMILES | EC50 ([1]; 31 A. flavus isolates from infected peanut seeds, read-out: EC50 values, mean (geometric mean)) [µg/mL] | EC50 ([1]; 31 A. flavus isolates, read-out: EC50 values, maximum) [µg/mL] | EC50 ([1]; 31 A. flavus isolates, read-out: EC50 values, minimum) [µg/mL] | EC50 ([2]; 104 A. niger isolates from infected peanut seeds or plants, read-out: EC50 values, mean (geometric mean)) [µg/mL] | EC50 ([2]; 104 A. niger isolates, read-out: EC50 values, maximum) [µg/mL] | EC50 ([2]; 104 A. niger isolates, read-out: EC50 values, minimum) [µg/mL] | Pest incidence (LS Means) ([3]; peanut GG 20, field trial Malpur, Gujarat, India, seed treatment, 42 days after planting, rates g AI/100 kg: VITAVAX 225, cyclobutrifluram 60, VIBRANCE MAXX 150, EVERGOL XTEND 30.8) | % efficacy based on disease incidence ([3]; peanut GG 20, field trial, seed treatment, 42 days after planting, rates g AI/100 kg: VITAVAX 225, cyclobutrifluram 60, VIBRANCE MAXX 150, EVERGOL XTEND 30.8) [%] | Aspergillus niger pest incidence compared to the untreated and standard treatments ([3]; treatment 3, 60 g AI/100 kg seed treatment, 42 days after application) | EC50 values, minimum ([4]; 22 C) [mg · ai/L] | EC50 values, maximum [4] [mg · ai/L] | EC50 values, maximum ([4]; listed as azoxystrobin) | EC50 values, minimum [5] [mg · ai/L] | EC50 values, minimum ([5]; listed as azoxystrobin) [mg · ai/L] | EC50 values, maximum [5] [mg · ai/L] | EC50 values, maximum ([5]; listed as azoxystrobin) |
| --- | --- | --- | --- | --- | --- | --- | --- | --- | --- | --- | --- | --- | --- | --- | --- | --- |
| O=C(N[C@@H]1CC[C@@H]1c1ccc(Cl)cc1Cl)c1cccnc1C(F)(F)F (racemic) [Cyclobutrifluram, cyclobutrifluram] | 0.108 (≈ 0.277 µM) | 0.7 (≈ 1.8 µM) | 0.0262 (≈ 0.0673 µM) | 0.082 (≈ 0.211 µM) | 0.703 (≈ 1.81 µM) | 0.00924 (≈ 0.0238 µM) | 0.42, % infected plants | 97.03 | significantly lower | – | – | – | – | – | – | – |
| CO/C=C(/C(=O)OC)c1ccccc1Oc1cc(Oc2ccccc2C#N)ncn1 [Azoxystrobin, azoxystrobin] | – | – | – | – | – | – | – | – | – | 0.003457 | >10 | more than 10 mg · ai/L | <0.001 | 0.000793 | >10 | more than 10 mg · ai/L |
